Like-named read-outs stand apart in the source and are kept apart here.
Experiments:
Human FXIa = target: T1, Human FXIa (Homo sapiens, UniProt P03951); assay: FXIa enzymatic chromogenic assay; format: biochemical
T1 construct: purchased HTI, Essex Junction, USA
Experimental: (§1) Enzymatic assay. […] Selected compounds were also screened against other serine proteases to evaluate their selectivity profiles.
(§2) Once the compounds were synthesized and characterized, enzymatic assays were performed to evaluate the inhibitory activity of the resulting compounds against FXIa and other serine proteases. […] IC50 values for the compounds were determined using equation: Q= V/(1+([I]/IC50)^n) Q denotes the assay readout, V denotes the uninhibited velocity of the enzyme, [I] denotes the inhibitor concentration, n denotes the slope and IC50 is the inhibitor concentration at V/2.
(§3) [S] denotes the substrate concentration.

Human FIXa = Human FIXa (Homo sapiens, UniProt P00740); assay: biochemical; conditions: read-out: FIXa % inhibition at 99 μM
Chain of Human FIXa (P00740 227-461 limits assumed): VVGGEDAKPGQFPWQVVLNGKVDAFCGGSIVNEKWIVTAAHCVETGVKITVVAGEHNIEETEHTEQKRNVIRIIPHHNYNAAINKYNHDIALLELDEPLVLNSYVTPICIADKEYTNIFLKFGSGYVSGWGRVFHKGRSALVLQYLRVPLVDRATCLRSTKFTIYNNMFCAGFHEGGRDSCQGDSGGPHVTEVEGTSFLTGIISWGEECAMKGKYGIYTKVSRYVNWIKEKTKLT
Chain of Human FIXa (P00740 47-191 partner limits assumed): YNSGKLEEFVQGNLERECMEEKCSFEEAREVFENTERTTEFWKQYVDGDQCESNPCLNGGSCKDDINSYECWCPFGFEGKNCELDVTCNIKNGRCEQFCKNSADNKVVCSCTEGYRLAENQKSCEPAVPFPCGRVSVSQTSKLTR
Experimental: as §1, §2

Human FXa = Human FXa (Homo sapiens, UniProt P00742); assay: biochemical; conditions: read-out: FXa % inhibition at 99 μM
Chain of Human FXa (P00742 235-488 limits assumed): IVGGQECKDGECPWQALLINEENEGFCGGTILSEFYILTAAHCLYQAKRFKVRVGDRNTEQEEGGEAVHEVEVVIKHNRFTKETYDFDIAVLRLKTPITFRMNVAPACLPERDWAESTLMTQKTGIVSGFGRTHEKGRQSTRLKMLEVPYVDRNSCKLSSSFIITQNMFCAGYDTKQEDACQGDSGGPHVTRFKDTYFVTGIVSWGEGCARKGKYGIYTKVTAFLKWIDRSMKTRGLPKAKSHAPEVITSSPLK
Chain of Human FXa (P00742 41-179 partner limits assumed): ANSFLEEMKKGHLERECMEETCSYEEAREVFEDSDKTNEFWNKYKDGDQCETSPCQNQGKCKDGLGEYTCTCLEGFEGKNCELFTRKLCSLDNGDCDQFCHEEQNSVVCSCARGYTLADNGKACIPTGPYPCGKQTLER
Experimental: as §1, §2

[1] = target: T2, Human recombinant thrombin (Homo sapiens, UniProt P00734); assay: Thrombin (FIIa) chromogenic assay; format: biochemical; conditions: for inhibition at 99 µM: read-out: FIIa % inhibition at 99 μM
T2 construct: Human recombinant thrombin was prepared in house; made in house
Experimental: as §1, §2, §3
Thrombin. Human recombinant thrombin was prepared in house.

[2] = target: Recombinant human trypsin (Homo sapiens, UniProt P07477); assay: biochemical; conditions: read-out: Trypsin % inhibition at 99 μM
Experimental: as §1, §2
Trypsin. Recombinant human trypsin was from Polymun, Vienna, Austria.

Human PKK = target: T3, Human PKK (Homo sapiens, UniProt P03952); assay: PKK (plasma kallikrein) chromogenic assay; format: biochemical; conditions: for Ki: converted from IC50
T3 construct: trypsin, plasma kallikrein (PKK), FIXa; purchased Calbiochem, Darmstadt, Germany
T3 sequence (P03952 391-638 limits assumed): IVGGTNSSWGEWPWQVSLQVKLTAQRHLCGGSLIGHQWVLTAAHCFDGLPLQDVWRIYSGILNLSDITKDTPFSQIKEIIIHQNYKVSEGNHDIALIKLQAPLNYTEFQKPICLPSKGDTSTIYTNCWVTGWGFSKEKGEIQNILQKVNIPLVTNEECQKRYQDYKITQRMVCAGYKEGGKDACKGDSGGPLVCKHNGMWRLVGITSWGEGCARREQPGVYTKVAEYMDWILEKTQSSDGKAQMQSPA
T3 sequence (P03952 20-390 partner limits assumed): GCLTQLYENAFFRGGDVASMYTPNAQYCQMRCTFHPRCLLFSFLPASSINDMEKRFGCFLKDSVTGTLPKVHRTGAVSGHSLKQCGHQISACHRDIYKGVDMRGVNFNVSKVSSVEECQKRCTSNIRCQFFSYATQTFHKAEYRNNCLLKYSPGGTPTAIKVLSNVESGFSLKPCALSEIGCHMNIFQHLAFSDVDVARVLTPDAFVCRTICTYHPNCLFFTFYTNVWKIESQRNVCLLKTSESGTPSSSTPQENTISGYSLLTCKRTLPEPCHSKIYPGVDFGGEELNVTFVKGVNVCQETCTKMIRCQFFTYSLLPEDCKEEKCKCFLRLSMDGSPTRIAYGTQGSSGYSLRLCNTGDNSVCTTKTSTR
Experimental: as §1, §2, §3
PKK. Human PKK was from Calbiochem, Darmstadt, Germany.

Human tPA = Human tPA (Homo sapiens, UniProt P00750); assay: biochemical; conditions: read-out: tPA % inhibition at 99 μM
Chain of Human tPA (P00750 36-562): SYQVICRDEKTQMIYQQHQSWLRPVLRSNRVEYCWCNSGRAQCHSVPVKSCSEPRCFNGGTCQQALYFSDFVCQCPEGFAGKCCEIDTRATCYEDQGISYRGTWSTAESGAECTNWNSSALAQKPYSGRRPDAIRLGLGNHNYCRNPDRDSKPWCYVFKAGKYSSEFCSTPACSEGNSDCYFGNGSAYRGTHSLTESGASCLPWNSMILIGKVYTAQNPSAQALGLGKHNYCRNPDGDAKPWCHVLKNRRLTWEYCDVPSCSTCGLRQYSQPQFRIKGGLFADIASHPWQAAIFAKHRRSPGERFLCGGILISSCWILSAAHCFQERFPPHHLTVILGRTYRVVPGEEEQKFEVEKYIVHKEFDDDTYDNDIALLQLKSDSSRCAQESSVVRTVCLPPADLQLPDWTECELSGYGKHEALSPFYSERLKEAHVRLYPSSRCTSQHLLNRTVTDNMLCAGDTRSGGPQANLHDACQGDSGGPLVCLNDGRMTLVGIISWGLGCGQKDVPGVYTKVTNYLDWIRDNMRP
Experimental: as §1, §2
tPa. Human tPA was from Biopool, Umeå, Sweden.

Human plasmin = target: T4, Human plasmin (Homo sapiens, UniProt P00747); assay: Plasmin chromogenic assay; format: biochemical; conditions: for inhibition at 99 µM: read-out: Plasmin % inhibition at 99 μM
T4 construct: Human plasmin was from Enzyme Research Laboratories, Swansea, UK; purchased Enzyme Research Laboratories, Swansea, UK
T4 sequence (P00747 581-810 limits assumed): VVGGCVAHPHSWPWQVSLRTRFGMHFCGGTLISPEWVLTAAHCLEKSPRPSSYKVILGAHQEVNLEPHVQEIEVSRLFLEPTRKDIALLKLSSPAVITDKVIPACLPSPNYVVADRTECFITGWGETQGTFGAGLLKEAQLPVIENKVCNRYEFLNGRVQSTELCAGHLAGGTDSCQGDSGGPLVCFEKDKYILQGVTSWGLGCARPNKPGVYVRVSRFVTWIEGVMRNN
T4 sequence (P00747 97-580 partner limits assumed): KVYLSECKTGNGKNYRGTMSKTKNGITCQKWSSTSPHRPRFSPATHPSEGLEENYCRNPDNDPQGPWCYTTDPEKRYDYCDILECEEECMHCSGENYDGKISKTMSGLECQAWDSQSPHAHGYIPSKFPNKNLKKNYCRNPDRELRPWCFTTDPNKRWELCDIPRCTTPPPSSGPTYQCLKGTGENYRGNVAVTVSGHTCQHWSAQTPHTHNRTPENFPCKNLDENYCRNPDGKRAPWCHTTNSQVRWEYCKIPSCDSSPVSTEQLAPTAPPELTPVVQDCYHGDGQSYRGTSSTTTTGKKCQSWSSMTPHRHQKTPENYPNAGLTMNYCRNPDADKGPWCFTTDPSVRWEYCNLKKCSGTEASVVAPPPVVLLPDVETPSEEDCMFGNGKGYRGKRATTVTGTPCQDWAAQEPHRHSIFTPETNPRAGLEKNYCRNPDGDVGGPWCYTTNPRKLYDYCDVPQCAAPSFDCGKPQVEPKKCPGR
Experimental: as §1, §2, §3
Plasmin. Human plasmin was from Enzyme Research Laboratories, Swansea, UK.

[3] = Chromatographic determination of lipophilicity; format: physicochemical; conditions: reversed-phase UPLC, Waters BEH C18 stationary phase, pH 7.4; measured by liquid chromatography, pH7.4
Excerpt: The chromatographic data was obtained utilizing a Waters Aquity UPLC chromatographic system running a gradient from 5–95% acetonitrile at pH7.4. The stationary phase was a Waters BEH C18 2.1x50 mm. Standardized retention data were obtained by normalization against a set of compounds with precisely determined (octanol/water) logD-values. Lipophilicity values for samples were derived from a corresponding calibration curve.

Caco2 cells = assay: Caco2 permeability; format: in vitro ADME
Experimental: A monolayer of Caco2 cells, cultured on semi-permeable polycarbonate surfaces, was used to study the permeability in the apical to basolateral direction. The process was atomized by a robotic Tecan EVO platform (Männerdorf, Switzerland) and 24-transwell plates from Costar (Cambridge, MA, USA). HBSS buffer pH 7.4 was dispensed to the basal side of the monolayer. […] Samples for quantitative analysis by LC/MS/MS were withdrawn before the addition of the test substrate and at 45 and 120 min post addition of the test substrate. During incubation the transwell plates were placed in a shaking incubator at 37°C between sampling. The peak areas were exported to Excel where Papp-values and recoveries were calculated. Twenty-two reference compounds with known human oral bioavailability were used to establish a correlation curve with Papp versus the fraction of the oral dose absorbed (fa).

Caco2 efflux = format: in vitro ADME; conditions: human, Caco-2; Caco2, Papp B to A / Papp A to B, pH 7.4 at side A
Excerpt: Efflux was studied in the same Caco2 cells with the modification that HBSS buffer pH 7.4 was used on both sides of the monolayer. The permeability was studied in the apical to basolateral direction (Papp AB) as well as in the basolateral to apical direction and (Papp BA). Efflux ratios were derived from the following equation: Papp BA/Papp AB.

rat hepatocytes = assay: Rat hepatocyte metabolic stability assay; format: in vitro ADME
Experimental: Rat hepatocyte metabolic stability was determined in accordance with the method described by Jacobson et al.. Cryo preserved hepatocytes at a concentration of 10^6 viable cells/mL were used. After thawing, hepatocytes were incubated for 10 min to warm to 37°C and test compounds, dissolved in acetonitrile, were added to give a final concentration of 1 μM. At 0.5, 5, 15, 30, 45, 60, 80, 100 and 120 min, the incubation system was mixed and 20 μL aliquots were transferred at each time point to wells in a separate plate filled with 80 μL acetonitrile to stop the reaction. The quenching plate was then vortexed followed by centrifugation, and supernatants were analyzed by LC/MS/MS. Peak areas were determined from extracted ion chromatograms, and the in vitro intrinsic clearance (in vitro CLint, in μL/min/10^6 cells) of parent compound was calculated from the slope in the regression analysis of the natural logarithm of parent concentration vs. time curve.

T1 sequence (P03951 388-625): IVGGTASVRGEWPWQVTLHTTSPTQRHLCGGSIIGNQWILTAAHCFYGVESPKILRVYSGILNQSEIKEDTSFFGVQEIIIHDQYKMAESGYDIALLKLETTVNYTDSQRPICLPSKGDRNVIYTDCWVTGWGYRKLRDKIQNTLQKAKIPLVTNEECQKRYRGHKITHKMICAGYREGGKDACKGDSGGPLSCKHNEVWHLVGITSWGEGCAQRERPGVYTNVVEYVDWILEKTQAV
T1 sequence (P03951 19-387): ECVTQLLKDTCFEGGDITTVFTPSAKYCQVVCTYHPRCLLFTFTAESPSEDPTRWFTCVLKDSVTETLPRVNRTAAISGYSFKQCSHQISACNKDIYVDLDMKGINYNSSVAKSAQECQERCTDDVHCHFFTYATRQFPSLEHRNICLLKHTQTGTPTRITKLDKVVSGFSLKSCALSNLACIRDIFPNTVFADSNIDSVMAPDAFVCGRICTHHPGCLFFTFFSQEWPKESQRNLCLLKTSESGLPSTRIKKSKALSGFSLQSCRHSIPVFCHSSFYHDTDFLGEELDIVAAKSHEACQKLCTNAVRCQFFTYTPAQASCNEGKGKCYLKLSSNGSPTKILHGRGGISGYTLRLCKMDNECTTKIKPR

| SMILES | IC50 (Human FXIa) [µM] | Ki (Human FXIa) [µM] | inhibition at 99 µM (Human FIXa) [%] | inhibition at 99 µM (Human FXa) [%] | inhibition at 99 µM [1] [%] | inhibition at 99 µM [2] [%] | inhibition at 99 µM (Human tPA) [%] | inhibition at 99 µM (Human plasmin) [%] | IC50 (Human PKK) [µM] | Ki (Human PKK) [µM] | further results |
| --- | --- | --- | --- | --- | --- | --- | --- | --- | --- | --- | --- |
| [H]/N=C(/N)c1ccc2cc(C(=O)Nc3ccccc3)cc(Nc3ncccn3)c2c1 [Compound 1] | < 0.14 |  |  |  |  |  |  |  |  |  |  |
| CCCS(=O)(=O)N[C@@H](C(=O)N[C@@H](CC(C)C)C(=O)NCc1ccc(C(=N)N)cc1)C1CCCCC1 [Compound 2, reference compound] | 0.11 | 0.06 |  |  |  |  |  |  |  |  |  |
| O=c1ccc2cc(Cl)ccc2[nH]1 [Compound 5] | 140 |  | 1 | 31 | 8 | 0 | 0 | 31 |  |  | ligand efficiency (LE) (Human FXIa; FXIa): 0.44; -ΔG fragment (printed with reversed sign in the ΔG link equation) (Human FXIa; FXIa, subtracted term, so ΔG itself is negative): 5.66 kcal/mol; Ki (Human FXIa; read-out: FXIa Ki): 70 µM; inhibition at 99 µM (Human PKK; read-out: PKK % inhibition at 99 μM): 5% |
| N=C(N)c1ccccc1 [Compound 7, benzamidine, reference compound] | 610 |  |  |  |  |  |  |  |  |  |  |
| COC(=O)Nc1ccc(-c2nc(CNC(=O)CCc3cc(Cl)ccc3-n3cnnn3)[nH]c2Cl)cc1 [Compound 11, reference compound] | 0.16 | 0.08 | 0 | 6 |  | 4 | 0 | 0 | 20 | 4.2 | IC50 [1]: 63 µM; Ki ([1]; converted from IC50): 31 µM |
| CC(=O)N[C@@H](Cc1ccccc1)C(=O)NCc1cc(=O)[nH]c2ccc(Cl)cc12 [Compound 14, (S)-2-Acetamido-N-{(6-chloro-2-oxo-1,2-dihydroquinolin-4-yl)methyl}-3-phenylpropanamide] | 33 | 16 | 4 | 0 | 9 | 18 | 3 | 7 | 59 | 12 | ligand efficiency (LE) (Human FXIa; FXIa): 0.22 |
| CN(C)C(=O)[C@H](Cc1ccccc1)NC(=O)c1ccc2[nH]c(=O)cc(O)c2c1 [Compound 16, (S)-N-(1-(Dimethylamino)-1-oxo-3-phenylpropan-2-yl)-4-hydroxy-2-oxo-1,2-dihydroquinoline-6-carboxamide] | > 1000 |  |  |  |  |  |  |  |  |  | inhibition at 1000 µM (Human FXIa; read-out: FXIa % inh. at 1 mM): 36% |
| O=C1CC(CNC(=O)[C@H](Cc2ccccc2)NC(=O)c2ccc3[nH]c(=O)cc(O)c3c2)c2cc(Cl)ccc2N1 (some centres unmarked) [Compound 18, N-({2S}-1-({6-Chloro-2-oxo-1,2,3,4-tetrahydroquinolin-4-yl}methylamino)-1-oxo-3-phenylpropan-2-yl)-4-hydroxy-2-oxo-1,2-dihydroquinoline-6-carboxamide] | 0.01 | 0.005 |  |  |  |  |  |  |  |  |  |
| Cc1cc(N)nc2ccccc12 [Compound 19] | 240 | 120 | 7 | 9 | 8 | 43 | 7 | 8 |  |  |  |
| O=C1CC(CC(=O)NC(Cc2ccccc2)C(=O)Nc2ccc(-c3nnn[nH]3)cc2)c2cc(Cl)ccc2N1 (centres unmarked) [Compound 20, N-(4-(1H-Tetrazol-5-yl)phenyl)-2-(2-(6-chloro-2-oxo-1,2,3,4-tetrahydroquinolin-4-yl)acetamido)-3-phenylpropanamide] | 0.33 | 0.16 | 4 | 12 | 10 | 7 | 15 | 8 | 2.3 | 0.48 |  |
| O=C(CC1Cc2cc(Cl)ccc2NC1=O)NC(Cc1ccccc1)C(=O)Nc1ccc(-c2nnn[nH]2)cc1 (centres unmarked) [Compound 21, N-(4-(1H-Tetrazol-5-yl)phenyl)-2-(2-(6-chloro-2-oxo-1,2,3,4-tetrahydroquinolin-3-yl)acetamido)-3-phenylpropanamide] | 1.9 | 0.95 | 0 | 0 | 2 | 1 | 3 | 0 | 25 | 5.2 |  |
| O=C(Cc1cc2cc(Cl)ccc2[nH]c1=O)NC(Cc1ccccc1)C(=O)Nc1ccc(-c2nnn[nH]2)cc1 (centres unmarked) [Compound 22, N-(4-(1H-Tetrazol-5-yl)phenyl)-2-(2-(6-chloro-2-oxo-1,2-dihydroquinolin-3-yl)acetamido)-3-phenylpropanamide] | 10 | 5 | 7 | 24 | 27 | 14 | 18 |  | 10 | 2.1 | IC50 (Human plasmin): 70 µM; Ki (Human plasmin; converted from IC50): 33 µM |
| O=C(CCc1cc2cc(Cl)ccc2[nH]c1=O)N[C@@H](Cc1ccccc1)C(=O)Nc1ccc(-c2nnn[nH]2)cc1 [Compound 23, (S)-N-(4-(1H-Tetrazol-5-yl)phenyl)-2-(3-(6-chloro-2-oxo-1,2-dihydroquinolin-3-yl)propanamido)-3-phenylpropanamide] | 67 | 34 |  |  |  |  |  |  |  |  |  |
| O=C(CCc1cc(=O)[nH]c2ccc(Cl)cc12)N[C@@H](Cc1ccccc1)C(=O)Nc1ccc(-c2nnn[nH]2)cc1 [Compound 24, (S)-N-(4-(1H-Tetrazol-5-yl)phenyl)-2-(3-(6-chloro-2-oxo-1,2-dihydroquinolin-4-yl)propanamido)-3-phenylpropanamide] | 9 | 4.5 |  |  |  |  |  |  |  |  |  |
| CN(Cc1cc(=O)[nH]c2ccc(Cl)cc12)C(=O)[C@H](Cc1ccccc1)NC(=O)c1ccc2[nH]c(=O)cc(O)c2c1 [Compound 25, (S)-N-(1-[{(6-Chloro-2-oxo-1,2-dihydroquinolin-4-yl)methyl}(methyl)amino]-1-oxo-3-phenylpropan-2-yl)-4-hydroxy-2-oxo-1,2-dihydroquinoline-6-carboxamide] | < 0.005 |  |  |  |  |  |  |  |  |  | inhibition at 0.005 µM (Human FXIa; read-out: FXIa % inh. at 5 nM): 85%; chromatographic logD [3]: 1.3; Caco2 A to B permeability (Caco2 cells; measured at pH 6.5): 0.28 1·10^-6 cm/s; efflux ratio (Caco2 efflux): 5.2; Rat CLint (rat hepatocytes): 10 μL/min/ 1·10^6 cells |
| Cc1c(-c2ccccc2)n[nH]c1C(=O)N(C)Cc1cc(=O)[nH]c2ccccc12 [Compound 27] | 99 | 50 |  |  |  |  |  |  |  |  | Caco2 A to B permeability (Caco2 cells; measured at pH 7.4 at side A): 12 1·10^-6 cm/s; efflux ratio (Caco2 efflux): 6.7; Rat CLint (rat hepatocytes): 58 μL/min/ 1·10^6 cells |

— PMC4309560, “Creating Novel Activated Factor XI Inhibitors through Fragment Based Lead Generation and Structure Aided Drug Design” (PLoS ONE, 2015)
